# Assay results from publication PMC12052742, “Engineering a newly identified alcohol dehydrogenase from Sphingobium Sp. for efficient utilization of nicotinamide cofactors biomimetics” (Bioresources and Bioprocessing, 2025).
# What was measured:
# Assay type in all cases: biochemical, Sphingobium sp. SYK-6
# SpADH2 [1] = assay: Substrate spectrum (spectrophotometric specific activity, fluorescent probe); conditions: substrate 5 mM, 1 h; for substrate preference of SpADH2 (in words): cofactor p-BANA^+ 7.5 mM, 5 µg SpADH2, pH 7.5, 30℃; for specific activity of SpADH2 toward the substrate: cofactor NAD^+ 2 mM, 0.05 µg SpADH2, pH 7.5, 30℃
# Protocol: Fig. 3 Substrate spectrum of SpADH2 utilizing (a) NAD^+ and (b) p-BANA^+. The darkness of the background color for each substrate stands for the activity of SpADH2 with NAD^+ (purple) or p-BANA^+ (cyan) as cofactor. The evaluation of substrate spectrum of SpADH2 was carried out under following conditions: 50 mM PBS buffer (pH 7.5) and 30℃, with 1a (5 mM) as substrate. For NAD^+(2 mM), 0.05 µg SpADH2 was added, and for p-BANA^+(7.5 mM), 5 µg SpADH2 was added. After 1 h, reactions were visualized by 0.2 mM florescent probes (2-[2-(1,4-dihydro-1-methyl-3-quinolinyl)ethenyl]-1,3,3-trimethyl-3H-indolium)
# Specific activity of SpADH2 in substrate spectrum study was measured spectrophotometrically. PBS (pH 7.5) buffer was pre-heated at 30°C for 15 min. For NAD^+, 0.05 µg SpADH2 was added to the PBS buffer (100 µL), and a final concentration of 2 mM NAD^+ was added. For tsNCBs cofactor p-BANA^+, 5 µg SpADH2 and a final concentration of 7.5 mM p-BANA^+ was added. The mixture was carried out in a 96-well microplate, and a final concentration of 5 mM substrate was added to start the reaction. The microplate was incubated in 30°C for 1 h. Florescent probes (2-[2-(1,4-dihydro-1-methyl-3-quinolinyl)ethenyl]-1,3,3-trimethyl-3H-indolium) in a final concentration of 0.2 mM (100 µL) was added (Scheme S1), and the microplate was placed in a microplate reader immediately for measurement under 537 nm (Fomin et al. [2016]).
# One unit of enzyme activity is defined as the amount of enzyme required to form 1 µmol of reduced florescent probes per minute at pH 7.5 and 30°C. Each reaction was repeated in triplet. Same reaction without substrate was used as a blank control. The molar absorbance coefficient (ε) was detected as […] with NADH as the reduced cofactor and 60,801 µM^− 1·cm^− 1 with p-BANAH as the reduced cofactor.
# SpADH2 variant A290I = assay: Cofactor spectrum (HPLC specific activity), variant A290I; conditions: 1a 5 mM, cofactor 7.5 mM, pH 7.5, 30℃, 5 µg enzyme
# Protocol: (§1) Fig. 8 Cofactor spectrums of SpADH2 and its variants. The darkness of color for each cofactor stands for the activity. For each cofactor cube, top left: WT, top right: H43L, bottom left: A290I, bottom right: H43L/A290I. (a) Natural cofactors and NMN^+ are shown in purple. (b) tsNCBs are shown in cyan. The evaluation of cofactor spectrum was carried out under following conditions: 50 mM PBS buffer (pH 7.5) and 30℃, with 1a (5 mM) as substrate and different cofactors (7.5 mM) as cofactor. For NAD(P)^+ and NMN^+, 0.05 µg enzyme was added, and for tsNCBs, 5 µg enzyme was added. The results were analyzed by HPLC after 1 h reaction
# (§2) Specific activity of SpADH2 in cofactor spectrum study was determined by HPLC analysis. PBS (pH 7.5) buffer was pre-heated at 30°C for 15 min. For NAD(P)^+ and NMN^+, 0.05 µg SpADH2 was added to PBS buffer (100 µL). For tsNCBs, 5 µg SpADH2 was added. A final concentration of 7.5 mM cofactor was added to the reaction mixture. Finally, a final concentration of 5 mM substrate was added to start the reaction. The reactions were conducted at 30°C.
# (§3) One unit of enzyme activity is defined as the amount of enzyme required to form 1 µmol 1b per minute at pH 7.5 and 30°C. Same reaction without cofactor was used as a blank control.
# [2] = tested on: SpADH2 variants (H43L, A290I, H43L/A290I); assay: Cofactor spectrum (HPLC specific activity), all variants together; conditions: 1a 5 mM, cofactor 7.5 mM, pH 7.5, 30℃
# Protocol: as §1, §2, §3
# SpADH2 [3] = assay: Cofactor spectrum of syringyl alcohol oxidation (HPLC specific activity), WT; conditions: 1a 5 mM, cofactor 7.5 mM, pH 7.5, 30℃; for utilization of the tsNCB by SpADH2 (in words) / activity of SpADH2 with the tsNCB as cofactor: 5 µg SpADH2, 1 h; for decrease in activity compared with NAD^+ as cofactor: 0.05 µg SpADH2
# Protocol: Fig. 2 Cofactor spectrum of syringyl alcohol oxidation catalyzed by SpADH2. The darkness of the background color for each cofactor stands for the activity of SpADH2 utilizing various cofactors. (a) NAD(P) ^+ and NMN^+ are shown in purple background. (b) tsNCBs are shown in cyan background. The evaluation of cofactor spectrum of SpADH2 was carried out under following conditions: 50 mM PBS buffer (pH 7.5) and 30℃, with 1a (5 mM) as substrate and different cofactors (7.5 mM) as cofactor. For NAD(P)^+ and NMN^+, 0.05 µg SpADH2 was added, and for tsNCBs, 5 µg SpADH2 was added. The results were analyzed by HPLC after 1 h reaction
# as §2, §3
# SpADH2 [4] = assay: Preliminary evaluation of NCB usage in oxidation of syringyl alcohol (HPLC); conditions: preliminary assay: 1a 1 mM, NCB 10 mM, pH 7.0, 30℃, 1 h
# Protocol: Sphingobium sp. SYK-6 belongs to genus Sphingomonas, and a search in UniProtKB identified 19 ADHs from this strain, including 5 PQQ-dependent and the remaining NAD^+/NADP^+-dependent enzymes. Two sequences annotated as aryl-alcohol dehydrogenases (SLG_34580 and SLG_24930) (Table. S1) were selected for heterologous expression (Fig. S1) and named SpADH1 and SpADH2, respectively. Their ability to utilize NCBs was assessed by oxidation of syringyl alcohol (1a) to produce syringaldehyde (1b) (Fig. 1a).
# Fig. 1 (a) Reaction scheme of SpADH2-catalyzed oxidation of syringyl alcohol. (b) Specific activity of SpADH2 toward four NCBs. The evaluation of NCBs usage by SpADH2 was carried out under following conditions: 50 mM PBS buffer (pH 7.0) and 30℃, with 1a (1 mM) as substrate and 4 typical NCBs (10 mM) as cofactor. A total of 0.1 mg/mL enzyme was added to a 200 µL reaction mixture, and was analyzed by HPLC after 1 h reaction
# Reaction samples were analyzed using Agilent 1260 Infinity II LC system under reversed phase condition. Column: Agilent C18 column. Analytical conditions for 1a and 1b: mobile phase: 50% water: 50% acetonitrile. The retention time for standard product 1b was 3.27 min, under flow rate of 1 mL·min^− 1and temperature of 30°C (Fig. S4).
smiles,measurement,setting,value
COc1cc(CO)cc(OC)c1O [syringyl alcohol],substrate preference of SpADH2 (in words),SpADH2 [1],optimal substrate
"NC(=O)c1ccc[n+](Cc2cccc(C(=O)O)c2)c1 [m-BANA^+, meta-3-carbamoyl-1-(3-carboxybenzyl)pyridin-1-ium]",catalytic activity with the tsNCB as cofactor,SpADH2 variant A290I; 1 h,118.11 U/g
same,catalytic activity of all variants with the cofactor (in words),[2],highest activity
"NC(=O)c1ccc[n+](Cc2cccc([N+](=O)[O-])c2)c1 [m-BNNA^+, meta-3-carbamoyl-1-(3-nitrobenzyl)pyridin-1-ium]",utilization of the tsNCB (in words),SpADH2 variant A290I,capable of utilizing
same,utilization of the tsNCB by SpADH2 (in words),SpADH2 [3],not effectively utilized
"Cc1ccccc1C[n+]1cccc(C(N)=O)c1 [o-BMNA^+, ortho-3-carbamoyl-1-(2-methylbenzyl)pyridin-1-ium]",utilization of the tsNCB by SpADH2 (in words),SpADH2 [3],No detectable activity
"NC(=O)c1ccc[n+](Cc2ccccc2)c1 [BNA^+, 1-benzyl-3-carbamoylpyridin-1-ium]",utilization of the NCB by SpADH2 (in words),SpADH2 [4],Appreciable activity
NC(=O)c1ccc[n+](Cc2ccccc2[N+](=O)[O-])c1 [o-BNNA^+],utilization of the tsNCB (in words),SpADH2 variant A290I,capable of utilizing
same,activity of SpADH2 with the tsNCB as cofactor,SpADH2 [3],1.92 U/g
"NC(=O)c1ccc[n+]([C@@H]2O[C@H](COP(=O)(O)OP(=O)([O-])OC[C@H]3O[C@@H](n4cnc5c(N)ncnc54)[C@H](OP(=O)(O)O)[C@@H]3O)[C@@H](O)[C@H]2O)c1 [NADP^+, reference compound]",decrease in activity compared with NAD^+ as cofactor,SpADH2 [3],roughly 50%
same,catalytic activity of all variants with the cofactor (in words),[2],relatively lower catalytic activity
"NC(=O)c1ccc[n+]([C@@H]2O[C@H](COP(=O)([O-])O)[C@@H](O)[C@H]2O)c1 [NMN^+, nicotinamide mononucleotide, reference compound]",decrease in activity compared with NAD^+ as cofactor,SpADH2 [3],roughly 50%
same,catalytic activity of all variants with the cofactor (in words),[2],relatively lower catalytic activity
OCc1ccsc1 [3-thiophenemethanol],specific activity of SpADH2 toward the substrate,SpADH2 [1],4.78 U/mg
same,substrate preference of SpADH2 (in words),SpADH2 [1],No significant preference
OCc1ccccc1 [benzyl alcohol],specific activity of SpADH2 toward the substrate,SpADH2 [1],4.71 U/mg
same,substrate preference of SpADH2 (in words),SpADH2 [1],No significant preference
NC(=O)c1ccc[n+](Cc2ccccc2Br)c1 [o-BBrNA^+],activity of SpADH2 with the tsNCB as cofactor,SpADH2 [3],1.3 U/g
NC(=O)c1ccc[n+](Cc2ccc([N+](=O)[O-])cc2)c1 [p-BNNA^+],utilization of the tsNCB (in words),SpADH2 variant A290I,capable of utilizing
same,activity of SpADH2 with the tsNCB as cofactor,SpADH2 [3],2.25 U/g
"Cc1ccc(C[n+]2cccc(C(N)=O)c2)cc1 [p-BMNA^+, para-3-carbamoyl-1-(4-methylbenzyl)pyridin-1-ium]",utilization of the tsNCB by SpADH2 (in words),SpADH2 [3],No detectable activity
